These results are taken from US11807906B2, “Peroxisome biomarkers in HIV disease progression and peroxisome activating drugs for HIV treatment” (priority 2017, dated 2023).

“Also recorded” adds a separate entry of the source.

One data set relates to HIV. The experiment in a line: HIV p24 ELISA in niclosamide-pretreated HeLa CD4+ cells. It counts as cell-based. The settings on record: HeLa CD4+ cells pretreated 24 hrs, HIV MOI=0.5, 48 hrs, vs DMSO, FIG. 17. As for the experimental part:
HeLa CD4+ cells were pretreated with the indicated concentrations of the peroxisome proliferator, niclosamide for 24 hrs or DMSO alone (vehicle control). Cells were then infected with HIV, MOI=0.5) for 48 hrs after which levels of the viral protein p24 were measured by ELISA.

The subject of another data set is HIV p24 protein. Description: HIV p24 immunoblot in niclosamide-pretreated HeLa CD4+ cells. Format: cell-based. The settings on record: HeLa CD4+ cells pretreated 24 hrs, HIV MOI=0.5, 48 hrs, relative to DMSO, FIG. 18/19. As for the experimental part:
(§1) HeLa CD4+ cells were pretreated with the indicated concentrations of the peroxisome proliferator, niclosamide for 24 hrs or DMSO alone (vehicle control). Cells were then infected with HIV, MOI=0.5) for 48 hrs after which levels of the viral protein p24 and peroxisomal protein were measured by immunoblotting. Actin served as loading control.
On the technique in general: Immunoblotting shows a protein as a band on a membrane.

The subject of another data set is peroxisomal protein PEX7. The experiment in a line: PEX7 immunoblot in niclosamide-pretreated HIV-infected HeLa CD4+ cells. The settings on record: 48 hrs, relative to DMSO. It counts as cell-based, human. As for the experimental part:
as §1

Data set [1] has as its system niclosamide-treated cells. The experiment in a line: Relative cell viability by ATP levels in cell lysates. The settings on record: below 1 micromolar, 72 hours, vs DMSO, FIG. 20. Format: cell-based. On the procedure:
Cells treated with niclosamide or DMSO were harvested after 72 hours. Relative cell viability was determined by measuring ATP levels in the cell lysates.

As to `O=C(Nc1ccc([N+](=O)[O-])cc1Cl)c1cc(Cl)ccc1O` [niclosamide, 5-chloro-N-(2-chloro-4-nitrophenyl)-2-hydroxybenzamide], the “HIV replication (levels of viral protein p24 by ELISA)” value is “potently and significantly inhibits HIV replication” in the data set with HIV; “significantly inhibited HIV replication” in the data set on HIV (listed as Niclosamide). Also, the “HIV p24 protein level by immunoblotting” value was “inhibits expression; also recorded: inhibits HIV replication” in the data set with HIV p24 protein and “inhibited expression; also recorded: inhibited HIV replication” in the data set with HIV p24 protein (listed as Niclosamide). In addition, the “PEX7 protein level by immunoblotting” value in the data set with peroxisomal protein PEX7 (FIG. 19) is given as “increases expression”; with peroxisomal protein PEX7 (FIG. 19, listed as Niclosamide), “increased expression”. The “cytotoxicity (relative cell viability, ATP levels)” value in data set [1] is reported as “not cytotoxic”.
